Assay results published in patent US7897349B2, “Macrophage migration inhibitory factor (MIF) as marker for urological inflammatory disease” (The United States of America as represented by the …, priority 2003, dated 2011).
Ends that are not written are not given here.

Tests used:
prostate and bladder = tested on: prostate and bladder
Text: In CPPS, prostatic inflammation is suspected to result in referred visceral pain and urodynamic changes. Therefore, we established a model of prostatitis that would allow the study of histological, molecular and physiological changes in the bladder and the prostate, in an effort to correlate it to visceral referred pain.

[1] = tested on: bladder, lumbosacral spinal cord, DRG and MPG; assay: Intravesical bacterial endotoxin (LPS) model of bladder inflammation; type: in vivo, rat
Text: Intravesical instillation of a bacterial endotoxin (lipopolysaccharide from E. Coli) has been documented to produce histological signs of bladder inflammation (Stein et al., J. Urol. 155: 1133-1138, 1996; Saban et al., Am. J Pathol. 160: 2095-2110, 2002; Wheeler et al., Eur. J Pharmacol. 417: 239-248, 2001). […] Therefore, we examined the effects of intravesical LPS on the levels of MIF and cox-2 on the bladder, lumbosacral spinal cord, DRG and MPG.

bladder and the prostate = assay: Systemic substance P (SP) model of neurogenic inflammation in the bladder and prostate; type: in vivo, rat
Text: We sought to determine if neurogenic inflammation alone (without producing damage or insult to the bladder epithelia, as was the case in the acid and LPS cystitis models) was also able to alter MIF levels in the bladder. In addition, we examined the prostate for signs of inflammation. Systemic injections of SP elicited plasma extravasation and edema (neurogenic inflammation) in the bladder and the prostate. We examined MIF and cox-2 to compare the results with our previous models of bladder injury (acid and LPS). In addition, we examined nerve growth factor (NGF) and the proto-oncogene c-fos.

bladder = assay: Substance P induced changes in CD74, CD44, p-ERK1/2 and MIF in the rat bladder; type: in vivo; settings: subcutaneous SP 40 μg/kg; one hour
Experimental: The materials and methods are identical to Meyer-Siegler et al. (Journal of Urology 173: February, 2005), the disclosure of which is incorporated herein by reference. In anesthetized rats, the bladder was isolated by cutting the ureters and urine was replaced by saline as intraluminal fluid ([…]). One hour after subcutaneous SP (40 μg/kg) or saline administration, the ILF and bladder were collected. Bladder tissue was analyzed for CD74 and CD44 by immunohistochemistry. Western blot analysis determined the relative amounts of bladder tissue MIF, CD74, CD44, and p-ERK1/2. ILF immunoprecipitation followed by Western blot analysis was performed to identify an association of MIF with CD74 and/or CD44

C=O [formalin]
MIF protein level in the bladder (prostate and bladder; animals receiving formalin in the prostate): significantly reduced | persistence of bladder hyperreflexia (prostate and bladder; chemical irritation of the prostate): at least 1 hour | bladder intercontraction interval (prostate and bladder; formalin injected into the prostate, maximal in first ten minutes, persisted 60 min): significant decrease

lipopolysaccharide from E. Coli [LPS]
histological changes of the bladder ([1]; intravesical LPS): marked histological changes indicative of cystitis | MIF protein and mRNA in all the tissues, including the bladder ([1]; intravesical LPS treated rats): significant increases

Substance P (RPKPQQFFGLM-NH2; ends and bridges not checked; UniProt P20366 58-68, looked up) [SP, tachykinin; systemic injection used as model of neurogenic inflammation]
cox-2 and c-fos levels in the bladder and the prostate (bladder and the prostate; SP group): significantly elevated | MIF levels in the urine and serum (bladder and the prostate; SP treated animals with isolated bladders): significantly increased | content of MIF in bladders and prostates (bladder and the prostate; SP treated compared to saline treated): marked decrease | edema in the lamina propria of the bladder (Mean) (bladder and the prostate; SP treated rats compared to saline treated rats, p<0.05): 2.69±0.1 | NGF levels in the prostate and the urine (bladder and the prostate; SP treated rats, not elevated in the bladder): significantly elevated | CD74 and CD44 bladder immunostaining (bladder): increased | MIF release from the bladder (bladder): significant MIF release | total bladder CD74 protein and mRNA, intracellular domain CD44, p-ERK1/2 and soluble CD44 in the ILF (bladder): increased
